The results in this text go back to patent publication US12269801B2, “Modified amino acids” (SUTRO BIOPHARMA, INC., priority 2012, dated 2025).

A short description of test [1]: Reactivity of amino acid analogs with DBCO-NH2 (61), absorption at 310 nm. As to conditions: 1:1 equivalence; for yield of reaction with compound (61): in six hours; for reaction rate with compound (61): pH 7.4 phosphate buffered saline, compared among analogs. It is filed as physicochemical. As for the experimental part:
DBCO-NH2 (61) was dissolved in pH 7.4 phosphate buffered saline to yield a 500 µM solution. Amino acid analogs (30), (1), and (2) were dissolved in the same buffer to yield 5 mM clear solutions, and then diluted to a concentration of 500 μM using the same buffer. One hundred microliters of each amino acid analog was mixed with 100 μL of compound (61) and vortexed. The absorption of compound (61) was monitored at 310 nm using a NANODROP 1000 UV Spectrometer. Measurements were obtained at 0, 0.5, 2, 6, and 20 hours. The reduction in the absorption of compound (61) is indicative of its reaction with the amino acid analogs.

A short description of test [2]: Reactivity of azido amino acids with DBCO analog (60), loss of DBCO absorbance at 310 nm. The test is classed as physicochemical. As to conditions: reaction with compound (60); for second-order rate constant: PBS buffer, 25° C., from plot of kobs vs. [Azide]; for rate constant fold higher than compound (50): relative to compound (50). On the procedure: DBCO analog (60), was dissolved in acetonitrile to a concentration of 60 μM. Amino acid analogs (30), (40), and (50) were serially diluted in PBS buffer in the wells of a 96-well microtiter plate to a volume of 180 μL. 20 μL of DBCO analog stock solution was added to each well and the kinetics of the loss of DBCO to form the addition adduct was monitored at 310 nm by absorbance using a SpectraMax plate reader at 25° C. A schematic of the reaction of compounds (30), (40), and (50) with compound (60) is shown as FIG. 1. The kinetics accurately fit a first order decay with […], where kobs is the pseudo first order rate constant with units of sec^−1 under conditions where [Azide compound]>>[DBCO]. A plot of kobs vs. [Azide] yields the second-order rate constant (units of M^−1 sec^−1) for each amino acid, a measure of the intrinsic chemical reactivity of each amino acid.

Test [3] relates to Y50TAG site in GFP. Put plainly: Cell-free (OCFS) incorporation into GFP at amber codon, fluorescence time course. The test is classed as biochemical. The text has this: This example describes incorporation of compound (30) into green fluorescent protein. To monitor synthesis of GFP, the DNA encoding turboGFP containing an amber codon (stop codon) before the chromophore was cloned into OCFS expression vector pYD317. The stop codon (TAG) was inserted by overlapping PCR mutagenesis at the nucleotides corresponding to the amino acid tyrosine at the 50th amino acid according to the crystal structure of turboGFP (pdb 2G6X).
[…] OCFS reaction mix was immediately added to microplate for a 30 μL final reaction volume containing 30% S30 extract, 24 μg/mL T7 RNA polymerase, 1 mM L-tyrosine (Sigma, T8566), pre-mix*, 10 μM tRNA, 5 μM pCNFRS D286R, 1 mM compound (30), and 3 nM turboGFP plasmid (Evrogen, Russia, subcloned into a PYD317 vector) in DEPC-treated water (G Biosciences, 786-109). A positive control reaction using turboGFP without the stop codon was used to ensure that the reactions proceeded with rates similar previously observed, while reactions containing turboGFP Y50TAG were also run without tRNA to ensure no fluorescence was detected (negative control) in the absence of the system responsible for incorporation of pAMF. Incorporation of pAMF into GFP achieves relatively high yields of protein in a site-specific manner.

Test [4] has as its system human GMCSF. Put plainly: Cell-free incorporation into GM-CSF at amber codon, autoradiography. It is filed as biochemical. Particulars: 1 mM compound (30), TAG at serine position 6. As for the experimental part:
DNA encoding human GMCSF with amber codon was cloned into expression vector pYD317. The TAG codon was inserted by overlapping PCR mutagenesis at the nucleotides corresponding to the amino acid serine at the position 6.
(§1) Cell-free extracts containing tRNA CUA were thawed to room temperature and incubated with 50 μM iodoacetamide for 30 min. Cell-free reactions were run at 30 C for up to 10 h containing 30% (v/v) iodoacetamide-treated extract with 8 mM magnesium glutamate, 10 mM ammonium glutamate, 130 mM potassium glutamate, 35 mM sodium pyruvate, 1.2 mM AMP, 0.86 mM each of GMP, UMP, and CMP, 2 mM amino acids for all 18 amino acids except tyrosine and phenylalanine which were added at 0.5 mM, 4 mM sodium oxalate, 1 mM putrescine, 1.5 mM spermidine, 15 mM potassium phosphate, 100 nM T7 RNAP, 1.3 μM E. coli DsbC, 2 mM oxidized (GSSG) glutathione, 1 μM tRNA synthetase, and 1 mM compound (30). The concentrations of GMCSF TAG variant plasmid was 5 μg/mL. […]
For reducing gel, 4 μL of sample, 1 μL of 1 M DTT, 7 μL of DI H2O and 4 μL of 4×LDS buffer (Invitrogen, Carlsbad, CA) were mixed and heated in hot blot at 70 C for 5 minutes. Samples were analyzed by 4˜12% Bis-Tris SDS-PAGE gels (Invitrogen, Carlsbad, CA) according to the manufacturer's recommendations. Gels were dried and analyzed by autoradiography using a Storm 840 PhosphoImager after about 16 hours exposure.

Test [5] relates to trastuzumab heavy chain. Put plainly: Cell-free incorporation into IgG at heavy chain amber codon, autoradiography. The test is classed as biochemical. As to conditions: 1 mM compound (30), TAG at serine position 136 (EU index). On the procedure:
TAG codon was inserted by overlapping PCR mutagenesis at the nucleotides corresponding to the amino acid serine at the position 136 by EU index in CHI domain.
as §1, with “extracts” for “extracts containing tRNA CUA”, “DsbC, 5 μM yeast PDI,” for “DsbC,”, “glutathione, 15 μM tRNA,” for “glutathione,”, “heavy chain” for “GMCSF”, “and wild type light chain plasmid were 7.5 μg/mL and 2.5 μg/mL respectively.” for “was 5 μg/mL.”
For non reducing gel, 4 μL of sample, 8 μL of DI H2O and 4 μL of 4×LDS buffer (Invitrogen, Carlsbad, CA) were mixed before being loaded on gel. […] Samples were analyzed by 4˜12% Bis-Tris SDS-PAGE gels (Invitrogen, Carlsbad, CA) according to the manufacturer's recommendations. Gels were dried and analyzed by autoradiography using a Storm 840 PhosphoImager after about 16 hours exposure.

Turning to `[N-]=[N+]=NCc1ccc(CC(N)C(=O)O)nc1` (stereo not drawn) [compound (1), 2-Amino-3-(5-azidomethyl-pyridin-2-yl)-propionic Acid], in test [1], the “yield of reaction with compound (61)” value was “almost quantitative yield” and the “reaction rate with compound (61)” value is recorded as “comparable rates”.
Regarding `[N-]=[N+]=NCc1ccc(C[C@H](N)C(=O)O)cn1` [compound (2)], the “reaction rate with compound (61)” value in test [1] is reported as “two- to four-fold slower”.
On to `[N-]=[N+]=NCc1ccc(C[C@H](N)C(=O)O)cc1` [compound (30)], for which, in test [2], the second-order rate constant is 1.4 M⁻¹ s⁻¹ and the “rate constant fold higher than compound (50)” value is “approximately 7 fold”. In addition, in test [1], the “yield of reaction with compound (61)” value was “almost quantitative yield” and the “reaction rate with compound (61)” value is recorded as “comparable rates”. Moreover, the RFU result in test [3] (at 200 minutes) is “approximately 130,000 RFU”. In test [3] (at 400 minutes), the RFU entry was “approximately 160,000 RFU”. For the same compound, the RFU result in test [3] (at 600 minutes) is reported as “approximately 170,000 RFU”. The “incorporation into GMCSF by autoradiography” value in test [4] was “intact full length GMCSF containing compound (30) was made”. Besides, the “incorporation into IgG by autoradiography” value in test [5] is “intact full length IgG containing compound (30) was made”.
Regarding `[N-]=[N+]=NCCCC(=O)NCCCC[C@H](N)C(=O)O` [compound (40)], in test [2], the second-order rate constant was determined as 1.4 M⁻¹ s⁻¹ and the “rate constant fold higher than compound (50)” value is reported as “approximately 7 fold”.
`[N-]=[N+]=Nc1ccc(C[C@H](N)C(=O)O)cc1` [compound (50), p-azido-phenylalanine, reference compound]: the second-order rate constant in test [2] was determined as 0.2 M⁻¹ s⁻¹.
